Data published in patent publication US7476673B2, “Disubstituted chalcone oximes as selective agonists of RARγ retinoid receptors” (Allergan, Inc., priority 2003, dated 2009).

Tests used:
[1] = target: T1, RARα (Homo sapiens, UniProt P10276); assay: ligand binding assay, RARα; conditions: results expressed in Ki numbers, read-out: RAR Binding α
T1 sequence (P10276 1-462): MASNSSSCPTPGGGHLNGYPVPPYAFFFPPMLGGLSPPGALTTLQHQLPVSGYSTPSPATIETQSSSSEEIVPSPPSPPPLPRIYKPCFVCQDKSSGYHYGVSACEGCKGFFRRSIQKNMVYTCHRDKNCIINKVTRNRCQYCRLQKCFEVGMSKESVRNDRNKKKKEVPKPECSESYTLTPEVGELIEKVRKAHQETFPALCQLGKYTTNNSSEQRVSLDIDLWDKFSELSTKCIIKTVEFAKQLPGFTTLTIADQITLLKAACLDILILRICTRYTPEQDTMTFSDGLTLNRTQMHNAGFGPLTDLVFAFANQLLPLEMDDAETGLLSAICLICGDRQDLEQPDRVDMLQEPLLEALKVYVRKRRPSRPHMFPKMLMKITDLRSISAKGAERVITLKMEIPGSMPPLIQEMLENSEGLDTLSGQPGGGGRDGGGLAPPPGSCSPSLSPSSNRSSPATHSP
Text: (§1) A holoreceptor transactivation assay and a ligand binding assay which measure the antagonist/agonist like activity of the compounds of the invention, or their ability to bind to the several retinoid receptor subtypes, respectively, are described in published PCT Application No. WO WO93/11755 (particularly on pages 30-33 and 37-41) published on Jun. 24, 1993, the specification of which is also incorporated herein by reference. A detailed experimental procedure for holoreceptor transactivations has been described by Heyman et al. Cell 68, 397-406, (1992); Allegretto et al. J. Biol. Chem. 268, 26625-26633, and Mangelsdorf et al. The Retinoids: Biology, Chemistry and Medicine, pp 319-349, Raven Press Ltd., New York, which are expressly incorporated herein by reference. The results obtained in this assay are expressed in EC50 numbers, as they are also in the chimeric receptor transactivation assay. The results of the ligand binding assay are expressed in Ki numbers. (See Cheng et al. Biochemical Pharmacology Vol. 22 pp 3099-3108, expressly incorporated herein by reference.)
(§2) Table 1 discloses the activity of certain exemplary compounds of the invention in the above-described chimeric RAR receptor transactivation and binding assays.

[2] = target: T2, RARβ (Homo sapiens, UniProt P10826); assay: ligand binding assay, RARβ; conditions: results expressed in Ki numbers, read-out: RAR Binding β
T2 sequence (P10826 1-455): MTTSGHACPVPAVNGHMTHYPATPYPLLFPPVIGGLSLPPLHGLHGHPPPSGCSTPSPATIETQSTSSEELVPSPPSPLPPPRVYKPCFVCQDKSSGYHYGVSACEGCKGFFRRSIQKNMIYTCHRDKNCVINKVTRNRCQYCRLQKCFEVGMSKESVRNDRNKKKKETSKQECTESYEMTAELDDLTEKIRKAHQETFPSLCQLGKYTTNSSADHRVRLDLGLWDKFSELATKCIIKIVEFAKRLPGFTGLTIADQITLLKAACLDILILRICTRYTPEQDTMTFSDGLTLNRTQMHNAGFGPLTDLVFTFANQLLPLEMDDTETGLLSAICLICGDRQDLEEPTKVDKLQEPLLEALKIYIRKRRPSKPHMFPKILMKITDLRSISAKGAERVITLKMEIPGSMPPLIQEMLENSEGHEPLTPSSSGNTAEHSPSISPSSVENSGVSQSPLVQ
Text: as §1, §2

[3] = target: T3, RARγ (Homo sapiens, UniProt P13631); assay: ligand binding assay, RARγ; conditions: results expressed in Ki numbers, read-out: RAR Binding γ
T3 sequence (P13631 1-454): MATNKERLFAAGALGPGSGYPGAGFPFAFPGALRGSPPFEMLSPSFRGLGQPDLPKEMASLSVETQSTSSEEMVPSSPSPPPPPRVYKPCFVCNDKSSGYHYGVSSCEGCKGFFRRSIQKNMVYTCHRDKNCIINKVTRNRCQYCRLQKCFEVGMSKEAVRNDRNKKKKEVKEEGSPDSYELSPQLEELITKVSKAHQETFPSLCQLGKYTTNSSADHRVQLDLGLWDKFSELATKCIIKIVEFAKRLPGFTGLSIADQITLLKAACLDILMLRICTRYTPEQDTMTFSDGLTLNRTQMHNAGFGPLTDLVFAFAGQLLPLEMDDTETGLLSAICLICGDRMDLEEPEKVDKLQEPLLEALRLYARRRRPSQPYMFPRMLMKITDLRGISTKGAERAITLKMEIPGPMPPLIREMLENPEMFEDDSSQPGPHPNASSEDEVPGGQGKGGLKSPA
Text: as §1, §2

[4] = target: T4, RARα (Homo sapiens, UniProt P10276); assay: chimeric receptor transactivation assay, RARα; format: cell-based; conditions: for EC50: chimeric receptor transactivation, read-out: RAR EC50 α; for % Efficiency α: percentage of maximum compared to standard TTNPB
T4 sequence (P10276 183-417 limits assumed): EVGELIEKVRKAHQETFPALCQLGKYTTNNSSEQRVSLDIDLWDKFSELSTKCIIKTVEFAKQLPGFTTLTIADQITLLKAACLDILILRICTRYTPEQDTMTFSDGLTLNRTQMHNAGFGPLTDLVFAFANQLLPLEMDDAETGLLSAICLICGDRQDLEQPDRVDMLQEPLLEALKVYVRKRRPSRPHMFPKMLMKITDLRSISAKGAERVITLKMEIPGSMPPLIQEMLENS
Description: (§3) The compounds of the invention were tested in certain assays for activity as agonists of RAR and RXR retinoid receptors. Specifically, one such assay is a chimeric receptor transactivation assay which tests for agonist-like activity in the RARα, RARβ and RARγ receptor subtypes, and which is based on work published by Feigner P. L. and Holm M. (1989) Focus, 112 is described in detail in U.S. Pat. No. 5,455,265. The specification of U.S. Pat. No. 5,455,265 is hereby expressly incorporated by reference.
as §1
(§4) Efficacy in a transactivation assay is expressed as a percentage of the maximum potency attained by the compound compared to a standard which, in this case, is the compound 4-[(1E)-2-(5,6,7,8-tetrahydro-5,5,8,8-tetramethyl-2-naphthalenyl)-1-propenyl]-benzoic acid. (TTNPB) This standard compound is described in PCT Publication WO 2002077169 A2.
as §2

[5] = target: T5, RARβ (Homo sapiens, UniProt P10826); assay: chimeric receptor transactivation assay, RARβ; format: cell-based; conditions: for EC50: chimeric receptor transactivation, read-out: RAR EC50 β; for % Efficiency β: percentage of maximum compared to standard TTNPB
T5 sequence (P10826 183-455 limits assumed): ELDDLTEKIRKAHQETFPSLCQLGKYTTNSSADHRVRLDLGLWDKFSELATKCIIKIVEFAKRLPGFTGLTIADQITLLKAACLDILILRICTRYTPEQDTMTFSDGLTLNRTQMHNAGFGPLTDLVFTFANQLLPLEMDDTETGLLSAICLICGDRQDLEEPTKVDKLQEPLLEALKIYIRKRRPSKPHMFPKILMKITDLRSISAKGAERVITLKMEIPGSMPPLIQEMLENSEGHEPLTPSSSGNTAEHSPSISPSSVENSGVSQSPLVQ
Description: as §3, §1, §4, §2

[6] = target: T6, RARγ (Homo sapiens, UniProt P13631); assay: chimeric receptor transactivation assay, RARγ; format: cell-based; conditions: for EC50: chimeric receptor transactivation, read-out: RAR EC50 γ; for % Efficiency γ: percentage of maximum compared to standard TTNPB
T6 construct: % Efficiency γ; other: percentage of maximum compared to standard TTNPB
T6 sequence (P13631 185-454 limits assumed): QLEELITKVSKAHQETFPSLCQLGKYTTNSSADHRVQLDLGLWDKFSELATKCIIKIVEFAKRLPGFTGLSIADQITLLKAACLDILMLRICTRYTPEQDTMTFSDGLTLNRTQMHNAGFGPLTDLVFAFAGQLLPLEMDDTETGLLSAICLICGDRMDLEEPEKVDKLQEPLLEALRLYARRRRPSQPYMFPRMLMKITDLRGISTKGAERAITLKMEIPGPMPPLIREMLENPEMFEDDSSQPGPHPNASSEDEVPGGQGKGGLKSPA
Description: as §3, §1, §4, §2

| Structure (SMILES) | Ki [1] | Ki [2] | Ki [3] | EC50 [4] | % Efficiency α [4] | EC50 [5] | % Efficiency β [5] | EC50 [6] | % Efficiency γ [6] |
| --- | --- | --- | --- | --- | --- | --- | --- | --- | --- |
| CC1(C)CCCc2ccc(C(/C=C/c3ccc(C(=O)O)cc3F)=N/O)cc21 | 5200 nM | 1200 nM | 46 nM | 118 nM | 39% | 62 nM | 133% | 44 nM | 97% |
| CC1(C)CCCc2ccc(C(/C=C/c3ccc(C(=O)O)cc3F)=N\O)cc21 | 2100 nM | 7000 nM | 132 nM | 345 nM | 120% | 4060 nM | 95% | 14 nM | 123% |
| CC1(C)CCSc2ccc(C(/C=C/c3ccc(C(=O)O)cc3F)=N/O)cc21 | 10000 nM | 8000 nM | 15 nM | > 1000 nM | – | 173 nM | 55% | 10 nM | 90% |
| CC1(C)CCSc2ccc(C(/C=C/c3ccc(C(=O)O)cc3F)=N\O)cc21 | 10000 nM | 10000 nM | 19 nM | > 1000 nM | – | 503 nM | 45% | 21 nM | 120% |
| CCCCCCCN1C(=O)CC(C)(C)c2cc(C(C=Cc3ccc(C(=O)O)cc3)=NO)ccc21 | 11000 nM | 29000 nM | 51 nM | > 1000 nM | – | – | – | 10 nM | 11% |
| CCCCCCCN1C(=O)CC(C)(C)c2cc(C(/C=C/c3ccc(C(=O)O)cc3)=N\O)ccc21 | 17000 nM | 9000 nM | 32 nM | > 1000 nM | – | 473 nM | 23% | 92 nM | 35% |
| CC1=CCC(C)(C)c2cc(C(/C=C/c3ccc(C(=O)O)cc3)=N/O)ccc21 | 3000 nM | 1300 nM | 6 nM | 7000 nM | 38% | 54 nM | 95% | 0.3 nM | 91% |
| CC1=CCC(C)(C)c2cc(C(/C=C/c3ccc(C(=O)O)cc3F)=N/O)ccc21 | 7000 nM | 11000 nM | 256 nM | > 1000 nM | – | 168 nM | 86% | 2 nM | 92% |
